The source made the active and inactive calls. The calls are words filed in the database; no cut-off is given here. Numbered stars: 1 amine (or outer) side, 2 acyl side, 3 side chain; on linkers, the order of the positions; unused ones are H or OH. Bridge positions count the residues as written; N and C are the ends. Square brackets hold non-standard residues; d marks the D form. Peptide text beside a SMILES is read from it. * marks the point of attachment. X2 = NCCCC[C@H](N[*:1])C(=O)NC(=O)COCC(=O)[*:2]; X1 = O=C(COCC(=O)*)Nc1ccc(CCC(=O)N2CCC2=O)cc1; X3 = O=C(CCc1ccc(N*)cc1)N1CCC1=O; NMeE = CN[C@@H](CCC(=O)O)C(=O)O; Aib = CC(C)(N)C(=O)O
Experiments:
[1] = target: T1, Placenta growth factor (Homo sapiens) (UniProt P49763); assay: Binding affinity to human PlGF-2 by surface plasmon resonance study
T1 sequence (whole entry): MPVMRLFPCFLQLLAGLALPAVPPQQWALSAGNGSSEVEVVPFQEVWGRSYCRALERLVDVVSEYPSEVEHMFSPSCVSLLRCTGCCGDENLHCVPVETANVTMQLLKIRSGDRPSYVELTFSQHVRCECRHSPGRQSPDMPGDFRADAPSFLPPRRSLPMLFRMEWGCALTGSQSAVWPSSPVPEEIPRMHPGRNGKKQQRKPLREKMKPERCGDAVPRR

[2] = target: T1, Placenta growth factor (Homo sapiens); assay: Binding affinity to human PlGF-1 by surface plasmon resonance study
[3] = target: T2, Placenta growth factor (Homo sapiens, UniProt P49763); assay: Inhibition of human PlGF-1-VEGFR-1 interaction by ELISA
T2 sequence (P49763 whole entry): T1 sequence (whole entry)

[4] = target: T3, Placenta growth factor (Mus musculus, UniProt P49764); assay: (§1) Inhibition of mouse PlGF-VEGFR-1 interaction by ELISA
T3 sequence (P49764 whole entry): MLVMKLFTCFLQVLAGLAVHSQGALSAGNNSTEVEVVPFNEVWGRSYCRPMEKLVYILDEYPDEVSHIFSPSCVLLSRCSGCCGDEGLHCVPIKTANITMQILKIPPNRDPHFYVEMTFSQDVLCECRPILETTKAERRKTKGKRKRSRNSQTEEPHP

[5] = target: T2, Placenta growth factor; assay: Binding affinity to human PlGF-1; conditions: read-out: Kd
[6] = Stability in Swiss Webster mouse serum assessed as functional compound remaining after 6 hrs; assay type: ADME, cell-free; conditions: read-out: Stability
[7] = Stability of the compound in presence of cathepsin B; assay type: ADME
[8] = target: T3, Placenta growth factor; assay: Binding affinity to mouse PlGF
[9] = Terminal half life in Swiss Webster mouse at 10 mg/kg, iv; assay type: ADME, organism-based; parameters: dose 10 mg/kg, route intravenous; conditions: in vivo, read-out: beta t1/2 (converted)
[10] = Terminal half life in cynomolgus monkey at 10 mg/kg, iv; assay type: ADME, organism-based, Macaca fascicularis; parameters: dose 10 mg/kg, route intravenous; conditions: in vivo, read-out: beta t1/2 (converted)
[11] = target: T2, Placenta growth factor; assay: Binding affinity to human PlGF-2
[12] = target: T2, Placenta growth factor; assay: Inhibition of human PlGF-2-VEGFR-1 interaction by ELISA
[13] = target: T4, Placenta growth factor (Mus musculus) (UniProt P49764); assay: as §1
T4 sequence (whole entry): T3 sequence (P49764 whole entry)

[14] = target: T4, Placenta growth factor (Mus musculus); assay: Inhibition of mouse PlGF interaction with human VEGFR-1 by ELISA

Compound	IC50 [3] [nM]	IC50 [4] [nM]	Kd [5] [nM]	remaining at 6 h [6] [%]	Kd [8] [nM]	half-life [9] [h]	Kd [11] [nM]	other results
CC[C@H](C)[C@@H]1NC(=O)[C@H](Cc2ccc(O)cc2)NC(=O)[C@H](Cc2cnc[nH]2)NC(=O)[C@@H](NC(=O)[C@@H](NC(=O)[C@H](CCC(=O)O)N(C)C(=O)[C@H](Cc2ccccc2)NC(=O)[C@H](C)NC(=O)[C@H](C)NC(=O)[C@H](CC(=O)O)NC(=O)[C@H](C)NC(C)=O)C(C)C)CSSC[C@@H](C(=O)N[C@H](C(=O)N[C@@H](CCCCNC(C)=O)C(=O)NC(C)(C)C(N)=O)[C@@H](C)O)NC(=O)[C@H](Cc2cnc[nH]2)NC(=O)C(C)(C)NC(=O)[C@H](CC(C)C)NC(=O)[C@H](CCCCNC(=O)COCC(=O)Nc2ccc(CCC(=O)N3CCC3=O)cc2)NC1=O (Ac-ADAAF[NMeE]VCHYIK(X1)L[Aib]HCTK(Ac)[Aib]-NH2; disulfide 8-16)	0.4		0.1		70	75	9	Stability [7]: Stable; half-life [10]: 78 h
CC[C@H](C)[C@@H]1NC(=O)[C@H](Cc2ccc(O)cc2)NC(=O)[C@H](Cc2cnc[nH]2)NC(=O)[C@@H](NC(=O)[C@@H](NC(=O)[C@H](CCC(=O)O)NC(=O)[C@H](Cc2ccccc2)NC(=O)[C@H](C)NC(=O)[C@H](C)NC(=O)[C@H](CC(=O)O)NC(C)=O)C(C)C)CSSC[C@@H](C(=O)N[C@H](C(=O)N[C@@H](CCCN=C(N)N)C(=O)N[C@@H](Cc2ccc(O)cc2)C(N)=O)[C@@H](C)O)NC(=O)[C@H](Cc2cnc[nH]2)NC(=O)[C@@H]2CCCN2C(=O)[C@H](CC(C)C)NC(=O)[C@H](CCCCNC(=O)COCC(=O)Nc2ccc(CCC(=O)N3CCC3=O)cc2)NC1=O (Ac-DAAFEVCHYIK(X1)LPHCTRY-NH2; disulfide 7-15)	1		0.3			14		
CSCC[C@H](NC(=O)[C@@H](NC(=O)[C@H](CCCCN)NC(=O)[C@@H]1CSSC[C@H](NC(=O)[C@@H](NC(=O)[C@H](CC(=O)O)NC(=O)[C@H](Cc2ccccc2)NC(C)=O)C(C)C)C(=O)N[C@@H](CCCCN)C(=O)N[C@@H](Cc2c[nH]c3ccccc23)C(=O)N[C@@H](C(C)C)C(=O)N[C@@H]([C@@H](C)O)C(=O)N[C@@H](CC(C)C)C(=O)N2CCC[C@H]2C(=O)N[C@@H](Cc2cnc[nH]2)C(=O)N1)C(C)C)C(=O)N[C@@H](CCCCN)C(=O)NC(=O)COCC(=O)Nc1ccc(CCC(=O)N2CCC2=O)cc1 (Ac-FDVCKWVTLPHCKVM[X2]-X3; disulfide 4-12)	2		4		400		100	IC50 [12]: 150 nM; inhibition [13]: inactive; inhibition [14]: inactive
CC[C@H](C)[C@@H]1NC(=O)[C@H](Cc2ccc(O)cc2)NC(=O)[C@H](Cc2cnc[nH]2)NC(=O)[C@@H](NC(=O)[C@@H](NC(=O)[C@H](CCC(=O)O)N(C)C(=O)[C@H](Cc2ccccc2)NC(=O)[C@H](C)NC(=O)[C@H](C)NC(=O)[C@H](CC(=O)O)NC(=O)[C@H](C)NC(C)=O)C(C)C)CSSC[C@@H](C(=O)N[C@H](C(=O)N[C@@H](CCCNC(=N)N)C(=O)N[C@@H](Cc2ccc(O)cc2)C(N)=O)[C@@H](C)O)NC(=O)[C@H](Cc2cnc[nH]2)NC(=O)[C@@H]2CCCN2C(=O)[C@H](CC(C)C)NC(=O)[C@H](CCCCNC(=O)COCC(=O)Nc2ccc(CCC(=O)N3CCC3=O)cc2)NC1=O (Ac-ADAAF[NMeE]VCHYIK(X1)LPHCTRY-NH2; disulfide 8-16)	3		8			24		

The remaining molecules from weak to strong by Kd [5], led by results:

IC50 [3] [nM]	IC50 [4] [nM]	Kd [5] [nM]	remaining at 6 h [6] [%]	Kd [8] [nM]	half-life [9] [h]	Kd [11] [nM]	Compound	other results
4	4	5	< 5				CSCC[C@H](NC(=O)[C@H](CCCCNC(=O)COCC(=O)Nc1ccc(CCC(=O)N2CCC2=O)cc1)NC(=O)[C@H](CCCCNC(C)=O)NC(=O)[C@@H]1CSSC[C@H](NC(=O)[C@@H](NC(=O)[C@H](CC(=O)O)NC(=O)[C@H](Cc2ccccc2)NC(C)=O)C(C)C)C(=O)N[C@@H](CC(N)=O)C(=O)N[C@@H](Cc2c[nH]c3ccccc23)C(=O)N[C@@H](C(C)C)C(=O)N[C@@H]([C@@H](C)O)C(=O)N[C@@H](CC(C)C)C(=O)N2CCC[C@H]2C(=O)N[C@@H](Cc2cnc[nH]2)C(=O)N1)C(N)=O (Ac-FDVCNWVTLPHCK(Ac)K(X1)M-NH2; disulfide 4-12)	Activity [1]: Active; Activity [2]: Active
	0.7	0.3	4				CC[C@H](C)[C@@H]1NC(=O)[C@H](Cc2ccc(O)cc2)NC(=O)[C@H](Cc2cnc[nH]2)NC(=O)[C@@H](NC(=O)[C@@H](NC(=O)[C@H](CCC(=O)O)NC(=O)[C@H](Cc2ccccc2)NC(C)=O)C(C)C)CSSC[C@@H](C(=O)N[C@H](C(=O)N[C@@H](CCCN=C(N)N)C(=O)N[C@@H](Cc2ccc(O)cc2)C(N)=O)[C@@H](C)O)NC(=O)[C@H](Cc2cnc[nH]2)NC(=O)[C@@H]2CCCN2C(=O)[C@H](CC(C)C)NC(=O)[C@H](CCCCNC(=O)COCC(=O)Nc2ccc(CCC(=O)N3CCC3=O)cc2)NC1=O	

Source: ChEMBL document CHEMBL1687887, “Evolution of potent and stable placental-growth-factor-1-targeting CovX-bodies from phage display peptide discovery” (J Med Chem, 2011)
